# Results as given in US20050152911A1, “Norovirus monoclonal antibodies and peptides” (priority 2003, published 2005).
# Ends that are not written are not given here.
# Key:
# [1] = test system: rSMV binding to CaCo-2 cells; details: serial dilutions of peptide, free and linked to carrier; Example 4 written in present tense
# [2] = test system: rNV binding to CaCo-2 cells; details: serial dilutions of peptide, free and linked to carrier; Example 4 written in present tense
Sequence,reduction of binding of rSMV to CaCo-2 cells [1],reduction of binding of rNV to CaCo-2 cells [2]
"WLPAPIDKL [peptide 1800, WLPAPIDKL]",reduces binding,–
"WTRGGHGL [compound 1731, WTRGGHGL]",–,reduce the binding
"WTRGQHQL [compound 1732, WTRGQHQL]",–,reduce the binding
"WTRGSHNL [peptide 1730, WTRGSHNL]",–,reduce the binding
